The source of these data is PMC12344264, “Mechanistic, in-silico and in vitro studies with nitrofurans reveal potent leishmanicidal activity and inhibition of trypanothione reductase” (International Journal for Parasitology: Drugs and Drug …, 2025).

For one series, the system named is L. major. Details: method as in Domínguez-Asenjo et al., 2021. The settings on record: ref Domínguez-Asenjo et al., 2021; cited from earlier work.
The next series relates to Leishmania. Details: method as in Domínguez-Asenjo et al., 2021. The conditions noted are these: oral administration, spleen and liver; ref Domínguez-Asenjo et al., 2021; cited from earlier work.
Series [1] relates to L. donovani-iRFP axenic amastigotes. Put plainly: ROS production by axenic amastigotes (DCFH-DA, flow cytometry). It counts as cell-based, Leishmania donovani. As for the experimental part: To assess ROS production in L. donovani-iRFP, axenic amastigotes were treated with nitrofurans at the concentration equivalent to their EC50 calculated in viability experiments. As positive control of oxidative stress induction, cultures were treated with 0.01 % H2O2 (v/v), whereas 0.03 % (v/v) DMSO was added as negative control. After an incubation period of 3 h at 37 °C, cells were harvested by centrifugation at 3500 rcf for 10 min, washed in phosphate-buffered saline (PBS), centrifuged again and resuspended in PBS. Cells were labeled with 5 μM 2′,7′-dichlorofluorescein diacetate (DCFH-DA, MedChemExpress) for 30 min at 37 °C. Then, cells were centrifuged at 3500 rcf for 5 min, washed, and resuspended in PBS. The cell suspension was stored at 4 °C until the analysis by flow cytometry, which was performed in a CytoFLEX SRT (Beckman Coulter). The experiment was carried out in triplicate and included three technical replicates.
Background: Flow cytometry measures light scatter and fluorescence of single cells or particles in a stream.

For series [2] the test system is unchanged. Put plainly: Antileishmanial effect on axenic amastigotes (iRFP fluorescence viability, 72 h). It counts as cell-based. The conditions noted are these: Leishmania donovani. How it is done: (§1) For efficacy studies, L. donovani-iRFP, a genetically modified strain of L. donovani LV9 constitutively expressing the gene encoding the infrared fluorescent protein (iRFP) ([Melcón-Fernández et al., 2023]), was used. This strain was grown as promastigotes in Schneider's insect medium (Sigma-Aldrich, Merck, Darmstadt, Germany) supplemented with 20 % (v/v) foetal bovine serum (FBS) (Gibco, ThermoFisher Scientific, Waltham, MA, USA) and […] antibiotic cocktail (100 U/mL penicillin and 100 μg/mL streptomycin) (Hyclone, ThermoFisher Scientific, Waltham, MA, USA) at 26 °C until mice were infected ([Carballeira et al., 2016]). Axenic and intramacrophage amastigotes were isolated from six-to eight-week-old female Balb/c mice (see below) that had been infected intraperitoneally with 1.5 × 10^9 metacyclic L. donovani-iRFP promastigotes. To obtain axenic amastigotes, bone marrow was extracted from the femur and tibia of 8- to 10-week-old infected mice and passed through a 100 μm cell strainer. After centrifugation at 3500 rcf for 10 min at room temperature, cell suspensions were resuspended in medium containing 15 mM KCl; 136 mM KH2PO4; 10 mM K2HPO4.3H2O; 0.5 mM MgSO4.7H2O; 24 mM NaHCO3; 22 mM glucose; 1 mM glutamine, 1 × RPMI 1640 vitamin mix (Sigma-Aldrich, Merck, Darmstadt, Germany), 10 mM folic acid, 100 mM adenosine, 1 × RPMI amino acid mix (Sigma-Aldrich, Merck, Darmstadt, Germany), 5 mg/mL hemin, 25 mM 2-morpholinoethanesulfonic acid (MES) pH 5.6, supplemented with 10 % FBS (Gibco, ThermoFisher Scientific, Waltham, MA, USA) and antibiotic cocktail, and incubated at 37 °C and 5 % CO2. To obtain intramacrophage amastigotes, spleens from infected Balb/c mice were cut into pieces, ground with 2 mg/mL collagenase D (Merck, Darmstadt, Germany) and passed through a 100 μm cell strainer. The splenocyte-enriched cell suspension containing intramacrophage amastigotes was resuspended in RPMI medium (Gibco, Fisher Scientific International Inc., Pittsburgh, PA, USA) supplemented with 20 % FBS, 1 mM sodium pyruvate, 24 mM NaHCO3, 2 mM L-glutamine, 1 × RPMI vitamins, 25 mM HEPES pH 7.2 and antibiotic cocktail ([Ashok et al., 2016]).
(§2) The antileishmanial effect of the nitrofurans selected in this study was tested both in vitro on axenic L. donovani-iRFP amastigotes and ex vivo on intramacrophage amastigotes according to previously published methods ([Melcón-Fernández et al., 2023], [2024]; [Andrés-Rodríguez et al., 2024]). Assays were performed in a final volume of […] containing 20,000 axenic amastigotes or a number of L. donovani-iRFP-infected murine splenocytes representing 150,000 relative fluorescence units (RFU), in each well of a black 384-well microtiter plate with optical bottom. In addition, 40 μL of one-half serial dilutions of each compound in amastigotes culture medium (for axenic amastigotes) or in supplemented RPMI medium (for intramacrophage amastigotes) were added to each well. Positive (amphotericin B at a final concentration of 18 μM) and negative (0.1 % v/v DMSO) controls were included on each plate. The plates were incubated at 37 °C and 5 % CO2 for a maximum of 72 h. Fluorescence emitted by viable L. donovani-iRFP was measured on an Odyssey infrared imaging system (Li-Cor, NE, USA).
(§3) All experiments were carried out in triplicate and included at least three technical replicates. […] The SI was calculated from the CC50/EC50 ratio.

For series [3], the system named is L. donovani-iRFP intramacrophage amastigotes. Put plainly: Ex vivo antileishmanial effect on intramacrophage amastigotes (infected murine splenocytes, iRFP fluorescence, 72 h). The format is cell-based. The conditions noted are these: Leishmania donovani, Splenocyte. How it is done: as §1, §2, §3
The target of another series is T1, L. donovani TryR (Leishmania donovani, UniProt P39050).
T1 construct: endogenous in cells; host or cells: L. donovani-iRFP (LV9) axenic amastigotes, crude cell extract
T1 sequence (P39050 whole entry): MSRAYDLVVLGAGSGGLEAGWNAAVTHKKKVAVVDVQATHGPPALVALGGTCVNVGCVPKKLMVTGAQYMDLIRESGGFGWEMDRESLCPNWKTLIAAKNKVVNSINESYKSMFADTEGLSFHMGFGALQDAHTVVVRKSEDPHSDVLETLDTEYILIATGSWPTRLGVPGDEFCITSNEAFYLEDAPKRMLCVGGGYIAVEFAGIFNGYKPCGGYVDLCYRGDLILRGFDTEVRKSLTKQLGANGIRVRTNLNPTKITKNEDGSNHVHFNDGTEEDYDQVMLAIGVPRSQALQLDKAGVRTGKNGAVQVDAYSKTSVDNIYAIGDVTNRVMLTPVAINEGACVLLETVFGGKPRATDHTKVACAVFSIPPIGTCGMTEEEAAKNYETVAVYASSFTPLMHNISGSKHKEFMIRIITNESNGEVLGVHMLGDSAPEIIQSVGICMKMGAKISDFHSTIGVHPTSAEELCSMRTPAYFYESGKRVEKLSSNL
Kind of series: biochemical. The conditions noted are these: for Type of inhibition: Lineweaver-Burk double reciprocal plot, varying T[S]2. As for the experimental part: The activity of L. donovani TryR was measured in the presence of different concentrations of nitrofurans according to the protocol previously described ([Melcón-Fernández et al., 2023]). Briefly, 1 × 10^10 L. donovani-iRFP axenic amastigotes were washed twice in PBS and lysed with a solution containing 1 mM EDTA, 40 mM HEPES, 50 mM Tris HCl pH 7.5, 2 % (v/v) Triton X-100 and Pierce™ Protease Inhibitors Mini Tablets (ThermoFisher Scientific, Waltham, MA, USA). Cell extracts were prepared by mechanical disruption of the cells with 0.5 mm diameter glass beads (Merck, Darmstadt, Germany) and the supernatant obtained by centrifugation at 10,000 rcf for 5 min at 4 °C was used to measure TryR activity in 96-well plates. […] Cell extracts diluted in Tris HCl pH 7.5 (0.43 μg of total protein in 50 μL) were added to launch the reaction. The negative control consisted of 2.5 % DMSO, whereas the blank reaction included the TryR assay solution without T [S]2. […] To determine steady-state conditions, enzymatic activity was measured at 412 nm (ε = 14,150 M^−1 cm^−1) for a period of up to 120 min (with 5 min intervals) at 26 °C in a Varioskan Lux spectrophotometer (ThermoFisher Scientific, Waltham, MA, USA). The experiment was carried out in triplicate and included three technical replicates.

Series [4] in a line: Cytotoxicity, alamarBlue, 72 h. The settings on record: human. The format is cell-based. How it is done:
(§4) For cytotoxicity tests, several mammalian cell lines were used. […] Primary cell cultures were also used to evaluate cytotoxicity. […] BMDM cells were differentiated for one week with 30 % […] from L929 cell line.
(§5) The in vitro cytotoxicity of the selected nitrofurans was evaluated in HepG2, RAW 264.7 cells, splenocytes and BMDM. In each well of a 96-well microtitre plate, 100 μL containing 10,000 HepG2 or RAW 264.7 cells were incubated for 24h at 37 °C and 5 % CO2 to allow the cells to settle. For primary cells, 100 μL containing 100,000 BMDM or 1,000,000 splenocytes were added to each well. Subsequently, […] of one-half serial dilutions of each compound diluted in DMEM (for HepG2 cells), RPMI medium (for RAW cells), splenocyte medium (for splenocytes) or BMDM medium supplemented with 10 % GM-CSF (for BMDM), were added to each well. The cytotoxic effect of the compounds was measured after 72 h of incubation at 37 °C and 5 % CO2. For this purpose, a 10 % (v/v) of the alamarBlue™ cell viability reagent (Invitrogen, Fisher Scientific International Inc., Pittsburgh, PA, USA) was added, and the reaction was incubated for 4 h at 37 °C and 5 % CO2. Fluorescence was measured using a Varioskan Lux spectrophotometer (ThermoFisher Scientific, Waltham, MA, USA). Positive controls consisting of 0.1 % (v/v) H2O2, and negative controls, consisting of 0.1 % (v/v) DMSO, were also included on each plate.
as §3
Background: Resazurin is reduced to fluorescent resorufin, in cell work by metabolically active cells.

Series [5] is described as follows: Cytotoxicity in bone marrow-differentiated macrophages, alamarBlue, 72 h. It counts as cell-based. The conditions noted are these: mouse. As for the experimental part:
as §4, §5, §3

Series [6] can be described thus: Cytotoxicity in primary splenocytes, alamarBlue, 72 h. The format is cell-based. The settings on record: mouse. How it is done:
as §4, §5, §3

Series [7] in a line: Cytotoxicity, alamarBlue, 72 h. The format is cell-based, murine. The conditions noted are these: mouse. How it is done: as §4, §5, §3
Setting [8] is: positive control 0.01 % (v/v), 3 h.
Setting [9] is: compound at its axenic EC50, 3 h.

The structures appear in SMILES notation. Bounds are passed on as bounds.

As for `CSCC1CN(/N=C/c2ccc([N+](=O)[O-])o2)C(=O)O1` (stereo not shown) [Nifuratel], in the series on L. major, the “outcome in cutaneous leishmaniasis model” value was “complete remission”. Also, the “reduction of parasite load” value in the series on Leishmania is > 70%.
For the compound `OO` [H2O2], in series [1] (setting [8]), the “Negative ROS (unstressed population)” value worked out at 28.5% and the “Positive ROS (stressed population)” value is 71.5%.
Regarding `O=C1OCCN1/N=C/c1ccc([N+](=O)[O-])o1` [Furazolidone], the EC50 in series [2] stood at 0.17 ± 0.01 µM; in [3], 0.09 ± 0.004 µM. Moreover, the “Negative ROS (unstressed population)” value in [1] (setting [9]) was found to be 45.9%. The “Positive ROS (stressed population)” value stood at 54.1 ± 5.8% in [1] (setting [9]) and 54.1% in [1] (compound at its axenic EC50, 3 h, listed as FURAZOLIDONE). Also, the Ki on L. donovani TryR was 13.7 ± 2.76 µM. On L. donovani TryR, the Type of inhibition entry is reported as “Uncompetitive”.
As for `CC1CS(=O)(=O)CCN1/N=C/c1ccc([N+](=O)[O-])o1` (stereo not shown) [Nifurtimox], the EC50 in series [2] worked out at 3.96 ± 0.37 µM; in series [3], 1 ± 0.07 µM. Besides, the half-maximal cytotoxic concentration (CC50) at 72 h amounted to 84.9 ± 12.4 µM in series [4] (HepG2 cells, 72 h, alamarBlue, read-out: HepG2 cells CC50); 60.2 ± 4.79 µM in [5] (72 h, alamarBlue, uninfected mice, read-out: BMDM CC50); 37.8 ± 6.12 µM in series [6] (72 h, alamarBlue, uninfected mice, read-out: Splenocytes CC50); 50.5 ± 2.25 µM in series [7] (RAW 264.7 cells, 72 h, alamarBlue, read-out: RAW 264.7 cells CC50). In series [1] (setting [9]), the “Negative ROS (unstressed population)” value is recorded as 31.9%. For the same compound, in series [1] (setting [9]), the “Positive ROS (stressed population)” value is listed as 68.1%. Also, at L. donovani TryR, the inhibition constant Ki came out at 33.5 ± 6.93 µM. Further, the Type of inhibition result on L. donovani TryR is recorded as “Uncompetitive”.
For `CC(=O)OC(OC(C)=O)c1ccc([N+](=O)[O-])o1` [5-nitro-2-furaldehide diacetate, 5-Nitro-2-furaldehyde diacetate], the EC50 in series [2] is 3.48 ± 0.09 µM; in [3], 4.6 ± 0.26 µM. Moreover, the CC50 at 72 h in series [4] was determined as 24.1 ± 0.59 µM; in series [5], 11.9 ± 0.46 µM; in series [6], 11 ± 0.28 µM; in [7], 15.6 ± 1.27 µM. For the same compound, in series [1] (setting [9]), the “Negative ROS (unstressed population)” value was found to be 31.1%. In series [1] (setting [9]), the “Positive ROS (stressed population)” value worked out at 68.9%. The Ki on L. donovani TryR stood at 77.2 ± 21.9 µM. Moreover, the Type of inhibition entry on L. donovani TryR is listed as “Uncompetitive”.

As usually defined, the EC50 is the concentration giving half of the maximal effect. Read a high EC50 as lower potency in that assay. Broadly, the Ki is a measure of affinity in units of concentration, obtained from inhibition or displacement. Higher therefore signals a looser hold on the target. What is called CC50 is the concentration giving 50% cytotoxicity.
